From patent US9932617B2, “Ketose 3-epimerase produced by arthrobacter globiformis” (priority 2013, dated 2018)
Like-named read-outs stand apart in the source and are kept apart here. Marks after values point to notes of the source that are not given here.

Experiments:
Type in all cases: biochemical, Arthrobacter globiformis M30
[1] = target: T1, ketose 3-epimerase (Arthrobacter globiformis, UniProt A0A1L7NQ96); assay: Effects of metal ions on EDTA treated purified enzyme; conditions: for Relative activity (%): 1 mM metal ion, D-psicose substrate, EDTA treated enzyme, activity without metal ions taken as 100; for metal ion activation: purified enzyme
Procedure: The enzyme was examined for metal ion requirement. The purified enzyme was dialyzed for 2 hours against 10 mM Tris-HCl containing 1 mM EDTA (pH 7.5). The enzyme was further dialyzed against an EDTA-free 10 mM Tris-HCl buffer (pH 7.5) for a whole day and night to obtain an EDTA treated enzyme. This enzyme was used to measure the effect of metal ions on enzyme activity, using 1 mM of various metal ions, and D-psicose as the substrate. The results are presented in Table 13, in which the activity with addition of each type of metal ions is shown as the relative value with respect to the activity of the enzyme without metal ions which is taken as 100.

[2] = target: T1, ketose 3-epimerase
[3] = target: T1, ketose 3-epimerase; assay: D-PE substrate specificity, enzyme before purification (crude enzyme); conditions: 0.2 M substrate, 55° C., 30 min, Tris buffer pH 7.0, D-psicose epimerization activity taken as 100
Procedure: A reaction was allowed under the reaction conditions below. After quenching the reaction by boiling, the reaction liquid was desalted with an ion-exchange resin, and filtered to prepare an HPLC sample. The sample was analyzed by chromatography using CK08EC (Mitsubishi Chemical Corporation) in an HPLC system (Tosoh). Each product sugar was determined by calculations from the peak area values of the chromatogram.
Eight hexose (ketoses) were used to examine the substrate specificity of the present enzyme before purification. An enzyme reaction composition (Table 4) containing each substrate (0.2 M, 350 μl) and an enzyme liquid (350 μl; Tris buffer pH 7.0) was allowed to react at 55° C. for 30 min, and the ketose epimerized and produced from each sugar was analyzed by HPLC. The results are presented as relative activity for each ketose relative to the D-psicose epimerization activity which is taken as 100, as follows. Table 5 presents relative activity values for D-fructose, D-psicose, D-sorbose, D-tagatose, L-fructose, L-psicose, L-sorbose, […] L-tagatose substrates. The activity was the highest for D-psicose, and the second highest for D-fructose. The substrate specificity can be said as characteristic of the D-psicose 3 epimerase (DPE), not other free ketose 3 epimerases, and was clearly different from the specificity of the D-tagatose3-epimerase (DTE) of Pseudomonas cichorii.

[4] = target: T1, ketose 3-epimerase; assay: Km and Vmax of the present enzyme; conditions: 30° C., in the presence of Mg^2+ ions
Procedure: The Km and Vmax of the present enzyme for D-psicose and D-fructose were measured. The measurement was made by measuring enzyme activity at 30° C. in the presence of Mg^2+ ions.

[5] = target: T1, ketose 3-epimerase; assay: Substrate specificity of purified enzyme for all ketohexoses; conditions: 400 mM substrate, 20 mM MgCl2, 70° C. (120 min for D-sorbose and L-fructose, 20 min others), D-psicose taken as 100
Procedure: The reactivity of the present enzyme was examined with respect to the all ketohexoses. The enzyme activity was tabulated as the relative activity with respect to the activity for D-psicose which is taken as 100. The present enzyme had activity for the all ketohexoses, and the activity was the highest for D-psicose. […] The initial velocity was determined by allowing a reaction at 70° C. for 120 min for D-sorbose and L-fructose, and 70° C. for 20 min for the other substrates.

[6] = crude enzyme dialyzed against EDTA, D-fructose substrate, pH 7.0, 55° C., 30 min

T1 sequence (A0A1L7NQ96 whole entry): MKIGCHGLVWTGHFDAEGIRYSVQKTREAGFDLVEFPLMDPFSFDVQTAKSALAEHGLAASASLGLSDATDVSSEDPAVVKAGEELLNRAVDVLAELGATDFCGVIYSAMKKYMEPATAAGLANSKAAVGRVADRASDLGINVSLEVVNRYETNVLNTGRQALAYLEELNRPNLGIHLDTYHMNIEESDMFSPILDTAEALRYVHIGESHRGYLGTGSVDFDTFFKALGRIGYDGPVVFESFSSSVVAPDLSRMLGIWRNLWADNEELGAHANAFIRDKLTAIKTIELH

[Ca+2] [Ca^2+, calcium]
Relative activity (%) [1]: 110% | metal ion activation [1]: activatable

[Cl-].[Cl-].[Co+2] [CoCl2]
metal ion activation (effect of metal salt on enzyme activity) ([2]; pH 7): increased

[Co+2] [Co^2+, divalent cobalt ions]
Relative activity (%) [1]: 130% | metal ion activation [1]: activatable | metal ion activation (effect of metal salt on enzyme activity) [2, 6]: activatable

[Cu+2] [Cu^2+]
Relative activity (%) [1]: 0%

O=C(CO)[C@@H](O)[C@H](O)[C@H](O)CO [D-fructose]
Relative activity (%) [3]: 58.14% | Km [4]: 31.5 mM | Vmax [4]: 68.5 U/mg | Relative activity (%) [5]: 43.8%

O=C(CO)[C@H](O)[C@H](O)[C@H](O)CO [D-psicose]
Relative activity (%) [3]: 100* % | Km [4]: 30.1 mM | Vmax [4]: 168 U/mg | Relative activity (%) [5]: 100%

O=C(CO)[C@H](O)[C@@H](O)[C@H](O)CO [D-sorbose]
Relative activity (%) [3]: 1.25% | Relative activity (%) [5]: 1.13%

O=C(CO)[C@@H](O)[C@@H](O)[C@H](O)CO [D-tagatose]
Relative activity (%) [3]: 5.42% | Relative activity (%) [5]: 18.3%

[Fe+2] [Fe^2+]
Relative activity (%) [1]: 32%

O=C(CO)[C@H](O)[C@@H](O)[C@@H](O)CO [L-fructose]
Relative activity (%) [3]: 12% | Relative activity (%) [5]: 0.97%

O=C(CO)[C@@H](O)[C@@H](O)[C@@H](O)CO [L-psicose]
Relative activity (%) [3]: 12% | Relative activity (%) [5]: 21.2%

O=C(CO)[C@@H](O)[C@H](O)[C@@H](O)CO [L-sorbose]
Relative activity (%) [3]: 8% | Relative activity (%) [5]: 16.6%

O=C(CO)[C@H](O)[C@H](O)[C@@H](O)CO [L-tagatose]
Relative activity (%) [3]: 12.5% | Relative activity (%) [5]: 44.0%

[Mg+2] [Mg^2+, magnesium ions]
Relative activity (%) [1]: 150% | metal ion activation [1]: activatable

[Mn+2] [Mn^2+, divalent manganese ions]
Relative activity (%) [1]: 137% | metal ion activation [1]: activatable | metal ion activation (effect of metal salt on enzyme activity) [2, 6]: activatable

[Na+] [Na^+]
Relative activity (%) [1]: 120%

[Ni+2] [Ni^2+]
Relative activity (%) [1]: 87%

[Zn+2] [Zn^2+]
Relative activity (%) [1]: 0%

manganese chloride [MnCl2]
metal ion activation (effect of metal salt on enzyme activity) [2, 6]: increased
